A short description of test [1]: UHPLC reduction kinetics with dithiothreitol. Format: physicochemical. The settings on record: 1 mM complex, 10 mM DTT, 1% DMF, 500 mM phosphate buffer pH 7.4, 20 °C. On the procedure: Figure S 3: Reduction kinetics of reference compounds with AA at 20°C , measured by UHPLC and UV absorption at 220 nm. A: Comparison of OAc/IPAEs with amino -group containing SucCa/IdoEs; B:
Reductive stability of reference compounds with no 1MDT -like ligand. AUC-values were normalized to t = 0. Experimental conditions: 1 mM complex, 10 mM AA in 1% DMF and 500 mM phosphate buffer […]
conditions: 1 mM complex, 10 mM DTT in 1% DMF and 500 mM phosphate buffer (pH 7.4). […]

For another test, the system named is HCT116 cells. The test is described as follows: Cell cycle analysis in HCT116 cells. Type of test: cell-based, human. As to conditions: HCT116, 50 µM, 24 h, 5-fold excess AA. On the procedure: The cells were seeded at 600,000 cells/well in six-well plates and allowed to recover for 24 h. On the next day, cells were exposed to the compounds for 24 h, then trypsinized, and collected. Subsequently, cells were washed with PBS and centrifuged (400g, 5 min), and the cell pellet was resuspended in 100 μL of 0.9% NaCl solution. The cell suspension was then added dropwise to 1.8 mL of ice-cold 80% ethanol and incubated for 48 h at −20 °C. The fixated cells were centrifuged (6200g, 2 min), and the cell pellet was diluted in 0.5 mL of PBS with 0.1 mg/mL RNAse A (R5503, Merck, Darmstadt, Germany), which was previously heat-activated (10 min at 96 °C), and samples were incubated for 30 min at 37 °C to remove RNA content. Next, to stain DNA, propidium iodide (81845, Merck, Darmstadt, Germany) at a concentration of 5 μg/mL was added, samples were incubated for 30 min on ice and subsequently measured by flow cytometry.

The subject of test [2] is phosphorylation of histone H2A.X at position Ser139. The test is described as follows: pH2AX signal detection in HCT116 cells. Type of test: cell-based, human. The settings on record: HCT116, 50 µM, 24 h, 5-fold excess AA. How it is done: HCT116 cells were seeded on polytetrafluoroethylene-printed spot slides (E63424-06, Science Services GmbH, Munich, Germany) at a density of 4000 cells/spot. On the next day, cells were exposed to the compounds for 24 h, at 50 μM and fixed in a 4% formaldehyde solution in phosphate-buffered saline (PBS) with a pH adjusted to 7.4 (158127, Merck, Darmstadt, Germany) for 15 min at RT. Spots were washed thrice with PBS each for 5 min, and samples were then incubated in a blocking buffer [PBS, 5% albumin (Carl Roth, Karlsruhe, Germany), 0.3% Triton X-100 (T8787, Merck, Darmstadt, Germany)] for 1 h at RT. […] Next, samples were incubated with rhodamine-labeled wheat germ agglutinin (RL-1022, Vector Laboratories, California, USA) at a concentration for 5 μg/mL for 15 min at RT, and spots were washed twice in PBS, embedded in vectashield mounting medium with DAPI (VECH-1200, Szabo-Scandic, Vienna, Austria), and analyzed using a LSM700 confocal microscope (Zeiss Axio Observer.Z1, inverse, 63× plan-apochromat NA 1.4 Oil DIC objective). […] Images were analyzed using ImageJ software. […] Then, Alexa Fluor 488 signal (integrated density) was measured and normalized to nuclear area.

The next test has as its system Treg differentiation. The test is described as follows: Treg differentiation assay in human PBMC/SKOV3 co-culture. Format: cell-based. The settings on record: 50 μM, 5 days, PBMC from three donors co-cultured with SKOV3. How it is done: PBMCs were thawed and slowly dropped into warm medium at a rate of 1 drop/5 s. PBMCs were then centrifuged (10 min, 400g) and washed with warm AIM V medium (12055091, Thermo Fisher Scientific, Massachusetts, USA). PBMCs were co-cultured with SKOV3 at a ratio of 2:1 (PBMC/SKOV3) in 12-well CytoOne plates (CC7682-7512, Starlab, Hamburg, Germany). In the presence of IL-2 (SRP3085, Merck, Darmstadt, Germany) at a concentration of 80 ng per 10^6, PBMCs were added. To induce Treg differentiation, OKT3 monoclonal CD3 antibody (317302, BioLegend, California, USA) and TGF-β1 CHO (AF-100-21C-10 μg, Eubio, Vienna, Austria) were added at concentrations of 4 μg and 10 ng per 10^6 PBMC, respectively. […] After 3 days, 250 μL of fresh AIM V medium was added, and cells were incubated for another two days. On the day of measurement, supernatant, containing PBMC, was collected.
Cells were washed with PBS and stained using the Aqua Zombie Fixable Viability Kit (423101, BioLegend, California, USA), according to the manufacturer’s instructions. Cells were then stained with fluorescent dye-labeled antibodies, according to the manufacturer’s instructions (Table S7). […] The cleaned up data were analyzed using the gating strategy, as shown in Figure S15 for murine tissue and Figure S16 for human co-culture experiment.

Consider `Cn1cc(CC([NH3+])C(=O)[O][Pt]23([O]C(=O)NCCCCCN4C(=O)CCC4=O)([NH]C4CCCCC4[NH]2)[O]C(=O)C(=O)[O]3)c2ccccc21.O=C([O-])C(F)(F)F` [SucCa/IdoEs, (OC-6-34)-[(R)-2-Ammonio-3-(1-methyl-1H-indol-3-yl)propanoato][(1R,2R)-1,2-cyclohexanediamino][5-(2,5-dioxo-2,5-dihydro-1H-pyrrolidin-1-yl)pentylcarbamato]oxalatoplatinum(IV) Trifluoroacetate], for which the “reduction in the presence of dithiothreitol (in words)” value in test [1] was “readily reduced”. In addition, in the test on HCT116 cells, the “fraction of cells in G2/M phase upon reduction by AA” value is recorded as “increased fraction of cells in the G2/M phase”. In addition, in test [2], the “pH2A.X signals upon reduction by AA” value is “increased pH2A.X signals”.

Consider `Cn1cc(C[C@@H](NC(=O)[O][Pt]2([O]C(=O)CCCCCN3C(=O)CCC3=O)[O]C(=O)C(=O)[O]2)C(=O)O)c2ccccc21.N[C@@H]1CCCC[C@H]1N` [SucEs/IdoCa], for which the “Treg differentiation (frequency of Treg in CD4+ T cells)” value with Treg differentiation is reported as “significantly reduced Treg differentiation”.

In the case of `Cn1cc(C[C@@H]([NH3+])C(=O)[O][Pt]2([O]C(=O)CCCCCN3C(=O)CCC3=O)[O]C(=O)C(=O)[O]2)c2ccccc21.N[C@@H]1CCCC[C@H]1N.O=C([O-])C(F)(F)F` [SucEs/IdoEs, (OC-6-44)-[(R)-2-Ammonio-3-(1-methyl-1H-indol-3-yl)propanoato][(1R,2R)-1,2-cyclohexanediamino][6-(2,5-dioxopyrrolidin-1-yl)hexanoato]oxalatoplatinum(IV) Trifluoroacetate], in the test on HCT116 cells, the “fraction of cells in G2/M phase upon reduction by AA” value is “increased fraction of cells in the G2/M phase”. The “pH2A.X signals upon reduction by AA” value in test [2] is reported as “increased pH2A.X signals”.

The values above are taken from paper PMC8404199, “Structure–Activity Relationships of Triple-Action Platinum(IV) Prodrugs with Albumin-Binding Properties and Immunomodulating Ligands” (Journal of Medicinal Chemistry, 2021).
